{"source": "ChEMBL document CHEMBL5390287", "about": "“Discovery of a Tritiated Radioligand with High Affinity and Selectivity for the Histamine H3 Receptor” (ACS Med Chem Lett, 2023)", "key": {"Histamine H4 receptor": {"biological_target": "Histamine H4 receptor (Homo sapiens, UniProt Q9H3N8)", "sequence (Q9H3N8 whole entry)": "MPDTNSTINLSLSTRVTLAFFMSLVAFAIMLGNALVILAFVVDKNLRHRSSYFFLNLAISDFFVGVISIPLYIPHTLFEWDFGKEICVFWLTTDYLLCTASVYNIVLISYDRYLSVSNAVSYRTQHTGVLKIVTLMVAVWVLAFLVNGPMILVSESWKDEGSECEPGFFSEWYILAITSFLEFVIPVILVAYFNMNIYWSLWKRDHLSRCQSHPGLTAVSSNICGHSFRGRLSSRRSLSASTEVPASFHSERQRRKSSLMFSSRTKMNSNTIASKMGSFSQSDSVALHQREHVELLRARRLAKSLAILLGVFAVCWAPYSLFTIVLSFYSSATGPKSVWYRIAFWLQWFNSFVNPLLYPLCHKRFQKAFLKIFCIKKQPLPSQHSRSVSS", "test": "Displacement of [3H]histamine from SP-FLAG tagged human histamine H4 receptor expressed in HEK293T cells assessed as inhibition constant incubated for 60 min by scintillation counter analysis", "assay_type": "cell-based"}, "Histamine H3 receptor [1]": {"biological_target": "T1, Histamine H3 receptor (Homo sapiens, UniProt Q9Y5N1)", "T1 sequence (Q9Y5N1 whole entry)": "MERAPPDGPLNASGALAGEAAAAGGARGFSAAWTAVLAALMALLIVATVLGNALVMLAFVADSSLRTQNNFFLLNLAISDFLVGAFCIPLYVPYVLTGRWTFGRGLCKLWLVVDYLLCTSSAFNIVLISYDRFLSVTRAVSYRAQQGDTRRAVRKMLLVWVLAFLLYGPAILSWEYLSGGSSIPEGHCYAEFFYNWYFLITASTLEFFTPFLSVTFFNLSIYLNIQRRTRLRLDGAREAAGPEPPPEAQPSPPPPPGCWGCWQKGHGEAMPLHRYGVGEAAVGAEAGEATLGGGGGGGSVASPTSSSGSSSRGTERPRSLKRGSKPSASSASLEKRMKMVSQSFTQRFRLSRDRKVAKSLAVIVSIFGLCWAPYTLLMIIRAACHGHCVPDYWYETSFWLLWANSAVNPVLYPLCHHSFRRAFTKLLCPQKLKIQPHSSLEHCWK", "test": "Binding affinity to SP-FLAG tagged human histamine H3 receptor expressed in HEK293T cells assessed as dissociation time constant incubated for 30 mins by scintillation counting analysis", "assay_type": "cell-based", "conditions": "tested as the 3H-labelled form"}, "Histamine H3 receptor [2]": {"biological_target": "T1, Histamine H3 receptor", "test": "Agonist activity at human histamine H3 receptor in HEK293T cells expressing H3R-NlucC/NlucN-mGsi construct using furimazine as substrate upto 10 uM by MiniG recruitment assay", "assay_type": "functional, cell-based"}, "Histamine H3 receptor [3]": {"biological_target": "T1, Histamine H3 receptor", "test": "Binding affinity to SP-FLAG tagged human histamine H3 receptor expressed in HEK293T cells assessed as maximum binding", "assay_type": "cell-based", "conditions": "tested as the 3H-labelled form"}, "Histamine H3 receptor [4]": {"biological_target": "T1, Histamine H3 receptor", "test": "Displacement of [3H]UR-MN259 from SP-FLAG tagged human histamine H3 receptor expressed in HEK293T cells assessed as inhibition constant incubated for 60 min by scintillation counter analysis", "assay_type": "cell-based"}, "Histamine H3 receptor [5]": {"biological_target": "T1, Histamine H3 receptor", "test": "Binding affinity to SP-FLAG tagged human histamine H3 receptor expressed in HEK293T cells using sodium containing Leibovitz's L-15 medium incubated for 60 min by scintillation counter analysis", "assay_type": "cell-based"}, "Homo sapiens [6]": {"organism": "Homo sapiens", "test": "Selectivity ratio of Ki for human histamine H4 receptor to Ki for human histamine H3 receptor"}, "Histamine H3 receptor [7]": {"biological_target": "T1, Histamine H3 receptor", "test": "Antagonist activity at human histamine H3 receptor in HEK293T cells expressing H3R-NlucC/NlucN-mGsi construct using furimazine as substrate assessed as displacement of histamine by MiniG recruitment assay", "assay_type": "functional, cell-based", "conditions": "filed as antagonist"}, "Homo sapiens [8]": {"organism": "Homo sapiens", "test": "Selectivity ratio of Ki for human histamine H2 receptor to Ki for human histamine H3 receptor"}, "Histamine H3 receptor [9]": {"biological_target": "T1, Histamine H3 receptor", "test": "Binding affinity to SP-FLAG tagged human histamine H3 receptor expressed in HEK293T cells", "assay_type": "cell-based", "conditions": "tested as the 3H-labelled form"}, "Histamine H3 receptor [10]": {"biological_target": "T1, Histamine H3 receptor", "test": "Binding affinity to SP-FLAG tagged human histamine H3 receptor expressed in HEK293T cells assessed as association rate constant incubated for 60 mins by scintillation counting analysis", "assay_type": "cell-based", "conditions": "tested as the 3H-labelled form"}, "Histamine H2 receptor": {"biological_target": "Histamine H2 receptor (Homo sapiens, UniProt P25021)", "sequence (P25021 whole entry)": "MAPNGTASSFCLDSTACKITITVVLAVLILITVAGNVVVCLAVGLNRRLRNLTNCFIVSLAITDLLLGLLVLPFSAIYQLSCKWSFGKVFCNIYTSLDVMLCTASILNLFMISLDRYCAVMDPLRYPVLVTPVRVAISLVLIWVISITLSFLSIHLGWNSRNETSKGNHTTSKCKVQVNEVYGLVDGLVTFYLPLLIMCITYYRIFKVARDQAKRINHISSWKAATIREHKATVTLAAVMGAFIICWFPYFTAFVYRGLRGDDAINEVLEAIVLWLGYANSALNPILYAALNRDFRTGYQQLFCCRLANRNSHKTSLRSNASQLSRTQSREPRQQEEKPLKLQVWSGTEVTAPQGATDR", "test": "Displacement of [3H]UR-KAT479 from SP-FLAG tagged human histamine H2 receptor expressed in HEK293T cells assessed as inhibition constant incubated for 60 min by scintillation counter analysis", "assay_type": "cell-based"}, "Histamine H3 receptor [11]": {"biological_target": "T1, Histamine H3 receptor", "test": "Binding affinity to SP-FLAG tagged human histamine H3 receptor expressed in HEK293T cells assessed as dissociation rate constant incubated for 30 mins by scintillation counting analysis", "assay_type": "cell-based", "conditions": "tested as the 3H-labelled form"}, "Histamine H3 receptor [12]": {"biological_target": "T1, Histamine H3 receptor", "test": "Displacement of UR-NR266 from NLuc-tagged human histamine H3 receptor expressed in HEK293T cells assessed as inhibition constant incubated for 5 mins followed by UR-NR266 addition by furimazine based NanoBRET competition binding assay", "assay_type": "cell-based"}, "Histamine H1 receptor": {"biological_target": "Histamine H1 receptor (Homo sapiens, UniProt P35367)", "sequence (P35367 whole entry)": "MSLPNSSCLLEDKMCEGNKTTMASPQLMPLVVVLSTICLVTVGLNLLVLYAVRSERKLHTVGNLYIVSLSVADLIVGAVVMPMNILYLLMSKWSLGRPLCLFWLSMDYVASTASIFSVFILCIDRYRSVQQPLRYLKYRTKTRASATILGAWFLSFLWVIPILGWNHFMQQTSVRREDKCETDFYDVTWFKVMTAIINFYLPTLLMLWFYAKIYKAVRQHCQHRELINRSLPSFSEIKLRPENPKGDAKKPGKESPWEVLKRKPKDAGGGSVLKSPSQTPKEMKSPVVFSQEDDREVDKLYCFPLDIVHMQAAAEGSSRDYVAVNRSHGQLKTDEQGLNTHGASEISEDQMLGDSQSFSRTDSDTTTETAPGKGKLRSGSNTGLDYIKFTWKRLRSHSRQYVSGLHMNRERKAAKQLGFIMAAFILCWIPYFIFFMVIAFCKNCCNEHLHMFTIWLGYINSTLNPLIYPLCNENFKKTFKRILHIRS", "test": "Displacement of [3H]mepyramine from SP-FLAG tagged human histamine H1 receptor expressed in HEK293T cells assessed as inhibition constant incubated for 60 min by scintillation counter analysis", "assay_type": "cell-based"}, "Histamine H3 receptor [13]": {"biological_target": "T1, Histamine H3 receptor", "test": "Binding affinity to SP-FLAG tagged human histamine H3 receptor expressed in HEK293T cells assessed as association time constant incubated for 60 mins by scintillation counting analysis", "assay_type": "cell-based", "conditions": "tested as the 3H-labelled form"}, "Homo sapiens [14]": {"organism": "Homo sapiens", "test": "Selectivity ratio of Ki for human histamine H1 receptor to Ki for human histamine H3 receptor"}, "Histamine H3 receptor [15]": {"biological_target": "T1, Histamine H3 receptor", "test": "Binding affinity to SP-FLAG tagged human histamine H3 receptor expressed in HEK293T cells assessed as dissociation constant by incubated for 30 mins by scintillation counting analysis", "assay_type": "cell-based"}, "Histamine H3 receptor [16]": {"biological_target": "T1, Histamine H3 receptor", "test": "Binding affinity to SP-FLAG tagged human histamine H3 receptor expressed in HEK293T cells assessed as kinetic dissociation constant incubated for 30 mins by scintillation counting analysis", "assay_type": "cell-based"}}, "note": "Calls of active or inactive are those of the source. The rule behind the calls is not given here."}
{"smiles": "CCC(=O)NC1CCN(Cc2ccc(OCCCN3CCCCC3)cc2)CC1", "values": [{"measurement": "Ki", "setting": "Histamine H4 receptor", "value": "> 100000", "unit": "nM"}, {"measurement": "TIME", "setting": "Histamine H3 receptor [1]", "value": 0.241, "unit": "h"}, {"measurement": "Activity", "setting": "Histamine H3 receptor [2]", "value": "inactive"}, {"measurement": "Bmax (disintegrations/minute)", "setting": "Histamine H3 receptor [3]", "value": 1670}, {"measurement": "Ki", "setting": "Histamine H3 receptor [4]", "value": 0.282, "unit": "nM"}, {"measurement": "Ki", "setting": "Histamine H3 receptor [5]", "value": 0.288, "unit": "nM"}, {"measurement": "Ratio Ki", "setting": "Homo sapiens [6]", "value": "> 100"}, {"measurement": "pKb", "setting": "Histamine H3 receptor [7]", "value": 9.39}, {"measurement": "Ratio Ki", "setting": "Homo sapiens [8]", "value": "> 100"}, {"measurement": "Kobs", "setting": "Histamine H3 receptor [9]", "value": 0.18, "unit": "min⁻¹"}, {"measurement": "K", "setting": "Histamine H3 receptor [10]", "value": "3.67e+06", "unit": "M⁻¹ s⁻¹"}, {"measurement": "Ki", "setting": "Histamine H2 receptor", "value": "> 100000", "unit": "nM"}, {"measurement": "K", "setting": "Histamine H3 receptor [11]", "value": 0.07, "unit": "min⁻¹"}, {"measurement": "Ki", "setting": "Histamine H3 receptor [12]", "value": 0.275, "unit": "nM"}, {"measurement": "Ki", "setting": "Histamine H1 receptor", "value": "> 100000", "unit": "nM"}, {"measurement": "TIME", "setting": "Histamine H3 receptor [13]", "value": 0.102, "unit": "h"}, {"measurement": "Ratio Ki", "setting": "Homo sapiens [14]", "value": "> 100"}]}
{"smiles": "N=C(N)SCCc1cnc[nH]1", "note": "[IMETIT]", "values": [{"measurement": "Ki", "setting": "Histamine H3 receptor [4]", "value": 5.75, "unit": "nM"}, {"measurement": "Ki", "setting": "Histamine H3 receptor [5]", "value": 28.2, "unit": "nM"}]}
{"smiles": "[3H]C([3H])([3H])C([3H])([3H])C(=O)NC1CCN(Cc2ccc(OCCCN3CCCCC3)cc2)CC1", "values": [{"measurement": "Kd", "setting": "Histamine H3 receptor [5]", "value": 0.513, "unit": "nM"}, {"measurement": "Kd", "setting": "Histamine H3 receptor [15]", "value": 0.562, "unit": "nM"}, {"measurement": "Kd", "setting": "Histamine H3 receptor [16]", "value": 0.324, "unit": "nM"}]}
